According to US6541463B1, “Inhibitors of type 5 and type 3 17β-hydroxysteroid dehydrogenase and methods for their use” (Endorecherche, Inc., priority 1998, dated 2003):

Assays:
progesterone receptor = assay: Progesterone receptor assay: inhibition of [3H]R5020 binding, uterine cytosol; design: species or system rat; settings: Table 4′
Experimental: The manner in which the percentage of inhibition is determined is described in “Other Tests; E-Progesterone Receptor Assay”. Lower numbers are desirable.
[17α-methyl-^3H]-promegestone (R5020) (84 Ci/mmol) and the corresponding unlabeled compound were purchased from New England Nuclear (Lachine, Québec, Canada). All other chemicals were of analytical grade.
Stock solutions of the unlabeled steroids were kept at 4° C. in ethanol. The desired steroid solutions were then prepared by appropriate dilution in buffer B (10 mM Tris-HCl, 1.5 mM EDTA, 10 mM α-monothioglycerol, pH 7.4) containing 30% ethanol.
Female Sprague-Dawley rats weighing 200-300 g were obtained from Charles-River Inc. (St-Constant, Québec, Canada). The rats were gonadectomized under general anesthesia (Isoflurane) and killed by cervical dislocation 24 hours later. The uteri are rapidly removed, dissected free from adhering tissue and frozen on dry-ice. Tissues were kept at −80° C. until use.
All procedures were performed at 4° C. Tissues were pulverized frozen in dry ice with a Thermovac pulverizer. The samples were then homogenized in 10 vol (w/v) of buffer A (25 mM Tris-HCl, 1.5 mM EDTA, 10 mM α-monothioglycerol, 10% glycerol, 10 mM sodium molybdate, pH 7.4) using a Polytron PT-10 homogenizer (Brinkmann Instruments, Canada) at a setting of 5 for two periods of 10 sec, with intervals of 10 sec for cooling. The homogenate was then centrifuged at 105,000×g for 90 min. The supernatant was used immediately for assay.
Progesterone binding was measured using the dextran-coated charcoal adsorption technique. […] Each concentration was done in triplicate. Assay was ended with 300 μl of DCC (1% Norit A and 0.1% Dextran T-70 in Buffer B). After 10 min of incubation, tubes were centrifuged at 2,000×g for 10 min. and decanted in vials with 6 ml of BCS liquid scintillation (New England Nuclear, Dupont). The radioactivity was measured in a Beckman counter at a counting efficiency of 35%.

androgen receptor = target: T1, androgen receptor (Rattus norvegicus, UniProt P15207); assay: Androgen receptor (AR) assay: inhibition of [3H]R1881 binding, prostate cytosol; settings: Table 4′
T1 construct: from tissue; host or cells: ventral prostate cytosol of gonadectomized male Sprague-Dawley rats
T1 sequence (P15207 1-902): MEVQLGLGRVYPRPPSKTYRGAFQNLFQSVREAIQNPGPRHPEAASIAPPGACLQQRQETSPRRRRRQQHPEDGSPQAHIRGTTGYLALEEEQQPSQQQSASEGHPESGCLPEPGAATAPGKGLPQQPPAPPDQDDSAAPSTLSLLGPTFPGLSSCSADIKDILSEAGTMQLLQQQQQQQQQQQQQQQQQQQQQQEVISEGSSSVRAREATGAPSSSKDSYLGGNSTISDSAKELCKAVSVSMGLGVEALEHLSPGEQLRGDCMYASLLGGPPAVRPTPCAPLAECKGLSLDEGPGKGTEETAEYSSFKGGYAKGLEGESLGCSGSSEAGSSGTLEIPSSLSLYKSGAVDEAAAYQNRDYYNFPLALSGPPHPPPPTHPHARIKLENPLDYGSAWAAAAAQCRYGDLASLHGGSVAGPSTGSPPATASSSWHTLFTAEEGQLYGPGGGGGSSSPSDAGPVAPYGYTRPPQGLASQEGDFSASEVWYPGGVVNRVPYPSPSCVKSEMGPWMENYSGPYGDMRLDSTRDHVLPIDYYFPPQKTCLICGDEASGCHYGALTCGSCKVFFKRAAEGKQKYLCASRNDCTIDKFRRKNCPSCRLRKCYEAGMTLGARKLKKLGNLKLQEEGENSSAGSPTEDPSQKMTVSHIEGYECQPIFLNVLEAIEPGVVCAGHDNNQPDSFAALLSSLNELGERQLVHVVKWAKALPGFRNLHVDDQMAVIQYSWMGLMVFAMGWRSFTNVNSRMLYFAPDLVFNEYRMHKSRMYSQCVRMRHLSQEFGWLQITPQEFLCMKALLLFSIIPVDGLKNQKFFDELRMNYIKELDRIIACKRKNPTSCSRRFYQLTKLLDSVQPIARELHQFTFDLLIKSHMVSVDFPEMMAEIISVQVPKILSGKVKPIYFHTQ
Experimental: The manner in which the percentage of inhibition is determined is described in “Other Tests; D-Androgen Receptor (AR) Assays”. Lower numbers are desirable.
Male Sprague-Dawley rats (Crl: CD(SD)Br) weighing 200-300 g were obtained from Charles-River Inc. (St-Constant, Québec, Canada). The rats were gonadectomized under general anesthesia (Isoflurane) and killed by cervical dislocation 24 hours later. The ventral prostates were rapidly removed, dissected free from adhering tissue and frozen on dry-ice. Prostates were kept at −80° C. until assay.
All subsequent steps were performed at 0-4° C. Prostates were homogenized in 5 vol (wt/vol) of buffer A (25 mM Tris-HCl, 1.5 mM EDTA disodium salt, 10 mM α-monothioglycerol, 10% glycerol, and 10 mM sodium molybdate, pH 7.4), using a Polytron PT-10 homogenizer (Brinkman Instruments, Canada) at a setting of 5 for three periods of 10 sec, with intervals of 10 sec for cooling. The homogenate was then centrifuged at 105,000×g for 60 min in a Beckman L5-65 ultracentrifuge (Fullerton, Calif.).
Androgen binding was measured using the hydroxylapatite assay (HAP). In brief, the radioactive steroid [^3H]R1881 solubilized in ethanol was diluted into buffer A. Aliquots of prostate cytosol preparation (0.1 ml) were then incubated with 8 nM [^3H]R1881 (0.1 ml, ˜200,000 cpm) in the presence or absence of the indicated concentrations of unlabeled compounds (0.1 ml, prepared in buffer A containing 10% ethanol) for 16-18 h at 0-4° C. […] Unbound steroids were separated by incubation for 40 min at 0-4° C. with 0.3 ml HAP prepared in buffer P (50 mM, Tris-HCl, 10 mM KH2PO4, pH 7.4) as follows: 10 g HAP were washed with buffer P until the supernatant reached a pH of 7.4 and then following centrifugation and decantation of the supernatant, 37.5 ml of buffer P were added. After incubation with HAP and 10 minutes of centrifugation at 1,000×g, the pellet was washed 3 times with 1 ml buffer P. Thereafter, the radioactivity was extracted from the pellet by incubation at room temperature for 60 minutes with 1 ml EtOH. After centrifugation, the supernatant was decanted into a scintillation vial and the pellet was extracted again with ethanol.

Compound | % Inhibition Progesterone Receptor E^−6 (progesterone receptor) [%] | % Inhibition Progesterone Receptor E^−8 (progesterone receptor) [%] | inhibition at 1 µM (androgen receptor; E^−6) [%] | inhibition at 0.01 µM (androgen receptor; E^−8) [%] | % Inhibition Androgen Receptor E^−6 (androgen receptor; E^−6) [%] | % Inhibition Androgen Receptor E^−8 (androgen receptor; E^−8) [%]
COc1c(Br)cc2c(c1Br)CCC1C2CCC2(C)C1CCC21CCC(C)(C)C(=O)O1 (stereo not drawn) [EM-1385-CS] | 2 | 2 | 0 | 0 |  | 
COc1ccc2c(c1)C(=O)CC1C3CCC4(CCC(C)(C)C(=O)O4)C3(C)CCC21O (stereo not drawn) [EM-1386] | 0 | 0 | 0 | 0 |  | 
CN(C)CCOc1ccc2c(c1)CCC1C2CCC2(C)C1CCC21CCC(C)(C)C(=O)O1 (stereo not drawn) [EM-1389-CS] | 0 | 3 | 0 | 0 |  | 
CC1(C)CCC2(CCC3C4CCc5cc(OCCN6CCCCC6)ccc5C4CCC32C)OC1=O [EM-1390-CS, 3-(N-piperidyl-ethyl)-1,3,5(10)-estratrien-17(R)-spiro-2′-(5′,5′-dimethyl-6′-oxo)-tetrahydropyran] | 2 | 0 | 0 | 0 |  | 
CC1(C)CCC2(CCC3C4CCc5c(cc(Cl)c(O)c5Cl)C4CCC32C)OC1=O (stereo not drawn) [EM-1391-CS] | 1 | 1 | 0 | 0 |  | 
CC1(C)CCC2(CCC3C4CCc5c(cc(Cl)c(OS(C)(=O)=O)c5Cl)C4CCC32C)OC1=O (stereo not drawn) [EM-1392-CS] | 2 | 2 | 0 | 0 |  | 
COc1ccc2c(c1)C(=O)CC1C2CC[C@@]2(C)C1CC[C@@]21CCC(C)(C)C(=O)O1 (stereo partly drawn) [EM-1394] | 4 | 2 | 0 | 0 |  | 
COCCOc1cc2c(cc1C#N)C1CC[C@@]3(C)C(CC[C@@]34CCC(C)(C)C(=O)O4)C1CC2 (stereo partly drawn) [EM-1396] | 0 | 0 | 2 | 0 |  | 
CC1(C)CC[C@@]2(CCC3C4CCc5cc(C(=O)O)ccc5C4CC[C@@]32C)OC1=O (stereo partly drawn) [EM-1401, 3-Carboxy-1,3,5(10)-estratrien-17(R)-spiro-2′-(5′,5′-dimethyl-6′-oxo)tetrahydropyran] | 0 | 0 | 0 | 0 |  | 
COCCOc1cc2c(cc1C(=O)OC)C1CC[C@@]3(C)C(CC[C@@]34CCC(C)(C)C(=O)O4)C1CC2 (stereo partly drawn) [EM-1402-CS, 2-Carbomethoxy-3-(2″-methoxyethyloxy)-1,3,5(10)-estratrien 17(R)-spiro-2′-(5′,5′-dimethyl-6′-oxo)tetrahydropyran] | 4 | 2 | 0 | 0 |  | 
CN(C)C(=O)c1ccc2c(c1)CCC1C2CCC2(C)C1CCC21CCC(C)(C)C(=O)O1 (stereo not drawn) [EM-1403] | 0 | 0 | 0 | 0 |  | 
CC1(C)CC[C@@]2(CCC3C4CCc5cc(C(N)=O)ccc5C4CCC32C)OC1=O (stereo partly drawn) [EM-1404] | 0 | 0 | 0 | 0 |  | 
COCCOc1cc2c(cc1C(=O)O)C1CCC3(C)C(CCC34CCC(C)(C)C(=O)O4)C1CC2 [EM-1405, 2-Carboxy-3-(2″-methoxyethyloxy)-1,3,5(10)-estratrien-17(R)-spiro-2′-(5′,5′-dimethyl-6′-oxo)tetrahydropyran] | 0 | 0 | 0 | 0 |  | 
CC1(C)CC[C@@]2(CCC3C4CCc5cc6oncc6cc5C4CC[C@@]32C)OC1=O (stereo partly drawn) [EM-1407-CS, 1,3,5(10)-estratrien-(2,3-oximino)-17(R)-spiro-2′-(5′,5′-dimethyl-6′-oxo)tetrahydropyran] | 3 | 0 | 0 | 0 |  | 
COCCOc1ccc2c(c1)C(=O)CC1C2CCC2(C)C1CCC21CCC(C)(C)C(=O)O1 (stereo not drawn) [EM-1408-CS] | 0 | 0 | 0 | 0 |  | 
COc1cc2c(cc1C)C1CCC3(C)C(CCC34CCC(C)(C)C(=O)O4)C1CC2 (stereo not drawn) [EM-1412-CS] | 0 | 0 | 0 | 0 |  | 
COCCOc1cc2c(cc1C(N)=O)C1CC[C@@]3(C)C(CC[C@@]34CCC(C)(C)C(=O)O4)C1CC2 (stereo partly drawn) [EM-1424, 2-Carbamoyl-3-(2″-methoxyethyloxy)-1,3,5(10)-estratrien 17(R)-spiro-2′-(5′,5′-dimethyl-6′-oxo)tetrahydropyran] | 0 | 1 | 2 | 2 |  | 
COCCOc1cc2c(cc1C(F)(F)F)[C@H]1CC[C@@]3(C)[C@@H](CC[C@@]34CCC(C)(C)C(=O)O4)[C@@H]1CC2 [EM-1438, 3-(2′-Methoxyethoxy)-2-trifluoromethyl-1,3,5(10)-estratrien-17(R)-spiro-2′-(5′,5′-dimethyl-6′-oxo)tetrahydropyran] | 0 | 0 |  |  | 10 | 0
